Holding throughout (type): cell-based
The test system of test [1] is SK-Hep1. The test is described as follows: Growth inhibition of different tumor cell lines: SK-Hep1. Particulars: Homo sapiens; SK-Hep1, liver adenocarcinoma, p53 Wild-Type. The source says:
(§1) The CyQUANT® Cell Proliferation Assay Kit (Invitrogen) was used, an assay that has a linear detection range extending from 50 or fewer to at least 250,000 cells.
(§2) Frozen cells are simply thawed and lysed by addition of a buffer containing the CyQUANT®.
(§3) Data were collected and analyzed with Prism 5 software to calculate the growth inhibition curve.
(§4) In particular, values obtained from the DMSO treated cells was set at 100% of growth. Data from treatment of cells with serial dilutions of the compounds were normalized versus the DMSO group and fitted using a four-parameter dose-response curve.
(§5) GI50 was calculated as the concentration of compound that gives a response half way between bottom and top plateaus of the fitted curve.
(§6) To test if the growth inhibition activity of the compound of example 1 was limited to breast cancer BT-474 cells, or if it could be generalized in other tumor cells from different tissues, the GI50 of compound of example 1 was tested in several cell lines.

Test [2] deals with HuH7. As to the kind of experiment: Growth inhibition of different tumor cell lines: HuH7. Particulars: Homo sapiens, Huh-7; HuH7, liver hepatocellular carcinoma, p53 mutant protein.
From the text: as §1, §2, §3, §4, §5, §6

The subject of test [3] is HCT116. As to the kind of experiment: Growth inhibition of different tumor cell lines: HCT116. To be noted: Homo sapiens, HCT-116; HCT116, colorectal carcinoma, p53 Wild-Type.
From the text: as §1, §2, §3, §4, §5, §6

Test [4] deals with Colo-205. As to the kind of experiment: Growth inhibition of different tumor cell lines: Colo-205. Particulars: Homo sapiens; Colo-205, colon, metastatic site: ascites, p53 mutant protein.
From the text: as §1, §2, §3, §4, §5, §6

The subject of test [5] is CaCO2. The test is described as follows: Growth inhibition of different tumor cell lines: CaCO2. To be noted: Homo sapiens, Caco-2; CaCO2, colorectal adenocarcinoma, p53 no protein expression.
From the text: as §1, §2, §3, §4, §5, §6

The test system of test [6] is Hep3B. The test is described as follows: Growth inhibition of different tumor cell lines: Hep3B. To be noted: Homo sapiens, liver hepatocellular carcinoma, p53 no protein expression.
From the text: as §1, §2, §3, §4, §5, §6

Test [7] has as its system HepG2. The test is described as follows: Growth inhibition of different tumor cell lines: HepG2. To be noted: Homo sapiens; HepG2, liver hepatocellular carcinoma, p53 Wild-Type.
From the text: as §1, §2, §3, §4, §5, §6

Test [8] concerns endogenous REV-ERB mediated transcription. As to the kind of experiment: Gene expression analysis (qPCR) of endogenous REV-ERB target genes in BT-474 cells. To be noted: 24 h, different doses, qPCR normalised to Gapdh. Here is the method: Gene Expression Analysis of Endogenous REV-ERB Target Genes after Treatment with the Compound of Example 1
In order to test the effect of the compound of example 1 on the endogenous REV-ERB mediated transcription, BT-474 cells were treated 24 h with different doses of the compound of the example 1 and then processed for RNA extraction.
Total RNA was extracted with Trizol reagent (Invitrogen) according to the manufacture instruction. One microgram of RNA was retro-transcribed with VILO retrotranscription mix (Invitrogen) and subsequently analyzed by qPCR as described in Grimaldi et al., Cell Metab., 2010; 12:509-520.
The REV-ERB targets Per1, Bmal1, Nampt, and p21 were analyzed. Gapdh gene was used to normalize the data, while Hprt1 gene was used as independent REV-ERB gene (negative control).
The results obtained are illustrated in FIG. 1 Values are presented as Relative expression, calculated versus the normalizing gene Gapdh, and shown as mean±SEM from at least 3 independent experiments. The expression of the REV-ERBs independent gene, Hprt1, was used as negative control.

Test [9] deals with tumorigenic breast cancer cells BT-474. The test is described as follows: Growth inhibition assay (CyQUANT Cell Proliferation Assay) in BT-474 cells. To be noted: Homo sapiens.
From the text: Given that REV-ERB target genes include several metabolic regulators, such as Pgc-1α and Nampt, it was decided to test the cell proliferation with a method that is independent from the metabolic state of the cell.
as §1, §2
For the assay, tumorigenic breast cancer cells BT-474 cells were seeded at 2500 cells per well in a 96-well plate and incubated over-night at 37° C. Then, fresh medium containing different concentration of the compounds or vehicle (DMSO) was added and cells were growth 48 h at 37° C. Finally, cells were frozen at […] and then processed according to the manufacture instructions. A minimum of triplicate data for each dose was used for the analysis.
as §3, §4, §5
The bottom plateaus of the fitted curve was used to calculate the Growth Inhibition max (GImax), defined as the percentage of the reduction of cells after 48 h upon a saturating dose of compound.
(§7) The different compounds were tested for their ability to inhibit the growth of the tumorigenic breast cancer cells BT-474 and for their antagonistic activity toward REV-ERB transcriptional repression, as described in the biological method section.
For the cell growth inhibition (GI) the growth inhibition 50 (GI50) and the growth inhibition max (GImax) are reported. […] The bottom plateaus of the curve was used to calculate the Growth Inhibition max (GImax), defined as the percentage of the reduction of cells after 48 h upon a saturating dose of the administered compound. Compounds with a GI50<100 μM were also tested for their antagonistic activity toward REV-ERB. For these compounds, the EC50 value is provided, calculated as the concentration of compound that gives a response half between the bottom (expression of the reporter in absence of compound) and the top (expression of the reporter at saturating doses of compound) plateaus of the fitted curves (see biological method section for a description of the reported assay). n.d.=not determined; n.t.=not tested.

In test [10] the test system is HCT116-E6. As to the kind of experiment: Growth inhibition of different tumor cell lines: HCT116-E6. To be noted: HCT116-E6, colorectal carcinoma, p53 no protein expression.
From the text: as §1, §2, §3, §4, §5, §6

The test system of test [11] is WiDr. The test is described as follows: Growth inhibition of different tumor cell lines: WiDr. Particulars: Homo sapiens, colon adenocarcinoma, p53 mutant protein.
From the text: as §1, §2, §3, §4, §5, §6

The subject of test [12] is REV-ERB. The test is described as follows: Luciferase-based assay of REV-ERB mediated transcriptional regulation (RevRE/SV40-CLuc reporter in HEK-293 cells). Particulars: HEK-293 cells transfected with RevRE reporter and REV-ERBα and/or β; read 24 h post-transfection; read-out: REV-ERB antagonism EC50.
From the text: Luciferase-Base Assay to Assess the Activity of the Compounds on REV-ERB Mediated Transcriptional Regulation
In order to assess the effect of the compounds of the invention on REV-ERB activity the inventors exploited the ability of REV-ERB to repress gene transcription of a specific DNA cis-element. In fact, the DNA binding domain (DBD) of REV-ERB recognizes specific DNA sequences (called RevREs=Rev-erb Responsive Elements) which contains an AGGTCA motif linked in 5′ to an A/T rich sequence harboring the following consensus: A/T A A/T N T (Harding et al., Mol Cell Biol., 1993; 13:3113).
Therefore, two repetitions of the RevRE consensus AGAATGTAGGTCA (SEQ ID NO: 13) upstream a SV40 promoter driving the expression of a reporter gene were cloned. As reported, the luciferase enzyme from the ostracod Cypridina noctiluca was adopted. […] Cypridina luciferase (CLuc) is secreted from cells by virtue of its natural signal peptide and its luminescence can be measured from the supernatant of transfected cells. Therefore, cell lysis is not necessary. Secreted CLuc is a very stable protein. Because of this property, the activity measured from the supernatant reflects the amount of protein accumulated up to the time of sampling. Multiple samples can therefore be obtained from the same transfected cells, allowing an easy set-up of time-course experiments. In addition, the direct use of the supernatant makes the system easily prone to automation for High Throughput Screening.
In order to normalize the experiment for the transfection efficiency, it was used a plasmid containing a SV40 promoter driving the expression of a secreted form of human alkaline phosphatase (SEAP), which enzymatic activity in the supernatant can be measured with chemiluminescence substrates.
To be able to rule out false-positive, for example due to the interference of the compounds to be tested with the fluorescence and/or chemiluminescence reactions, it was used as control a mutated version of the RevRE (GAGCCCGTAGGTCA) (SEQ ID NO: 14) that is no longer able to bind REV-ERB DBD (Harding et al., Mol Cell Biol., 1993; 13:3113).
The person skilled in the art will appreciate that an agonist will improve the ability of REV-ERB to repress the transcription, reducing the luminescence signal, while an antagonist will produce the opposite effect.
For the assay, HEK-293 cells were transfected with the reporter vectors and a plasmid expressing the REV-ERBα and/or β protein. After 6 h from transfection, the medium was replaced with fresh medium containing different doses of the compounds or vehicle (DMSO). After 24 h post-transfection, the supernatant was analyzed for the secreted luciferase and AP activity according to the manufacture instruction. Data normalized as fold activation versus vehicle (DMSO) were fitted using a four-parameter dose-response curve to calculate the EC50 of the different compounds.
as §7
For the cell growth inhibition (GI) the growth inhibition 50 (GI50) and the growth inhibition max (GImax) are reported. […] The bottom plateaus of the curve was used to calculate the Growth Inhibition max (GImax), defined as the percentage of the reduction of cells after 48 h upon a saturating dose of the administered compound. Compounds with a GI50<100 μM were also tested for their antagonistic activity toward REV-ERB. […]

Where a name gives a salt, the structure may show the parent alone.

For the compound `CN1CCN(Cc2cc(CNC3(c4ccccc4F)CCCC3)ccc2O)CC1` [Example 1, 4-[[[1-(2-Fluorophenyl)cyclopentyl]amino]methyl]-2-[(4-methylpiperazin-1-yl)methyl]phenol trihydrochloride], the concentration for 50% growth inhibition (GI50) in test [1] came out at 50 µM; in [2] it was 8 µM; in test [3], 19 µM; in test [4], 30 µM; in test [5] it was 18 µM; in test [6], 10 µM. Moreover, the GI50 in test [7] came to 10 µM; in [9] (48 h, CyQUANT, read-out: Cell Growth Inibition GI50) it was 18 µM; in [10] it was 20 µM; in [11], 12 µM. Besides, the “expression of Bmal1 (REV-ERB target, circadian regulation)” value in test [8] is on record as “induced in a dose-dependent manner”. Also, the “expression of Nampt (REV-ERB target, metabolism)” value in test [8] is given as “induced in a dose-dependent manner”. Moreover, in test [8], the “expression of Per1 (REV-ERB target, circadian regulation)” value is on record as “induced in a dose-dependent manner”. In addition, in test [8], the “expression of p21 (REV-ERB target, cell cycle)” value is on record as “induced in a dose-dependent manner”. The “expression of the REV-ERB independent gene Hprt1 (negative control)” value in [8] was “negligible effects”. Moreover, the Emax in test [9] (reduction of cells after 48 h at saturating dose, read-out: Cell Growth Inibition GImax) amounted to 72%. The EC50 in test [12] was 25 µM.

As usually defined, the GI50 is the concentration that inhibits growth by half. Usually EC50 stands for the concentration needed to bring the measured effect to its halfway point.

For the origin of these results see US9949968B2, “Diarylalkylamine REV-ERB antagonists and their use as medicaments” (FONDAZIONE ISTITUTO ITALIANO DI TECNOLOGIA, priority 2013, dated 2018).
